Laboratory results taken from patent US11534114B2, “18F labeled amino acids, derivatives thereof and method of making same” (SIMON FRASER UNIVERSITY, priority 2016, dated 2022).

Tested on: U-87 tumor
Assay: Dynamic PET/CT time-activity curves of accumulation in selected organs
Type: in vivo, mice
Settings: time-activity curves (FIG. 41)

course of activity in U-87 tumor and pancreas after the peak (after peak accumulation): slow progressive efflux | time of peak accumulation in the U-87 tumor and pancreas (intravenous injection, mice bearing U-87 xenograft, 60 min dynamic scan): < 10 min
SMILES: CC(C)([18F])CC[C@H](N)C(=O)O [5-[^18F]FHL, 5-[^18F]fluorohomoleucine]
